# In patent US20240360134A1, “PYRAZOLOPYRIMIDINES AND THEIR USES AS PDGFR INHIBITORS” (priority 2021, published 2024):
# Like-named read-outs stand apart in the source and are kept apart here.
# What was measured:
# [1] = target: Tb-labeled inactive PDGFRβ (Homo sapiens (Human), UniProt P09619); assay: biochemical; type: binding
# [2] = target: His6-TEV-PDGFRβ (557-1016) (Homo sapiens (Human), UniProt P09619); assay: PDGFRβ HTRF Assay; type: biochemical
# Procedure: Instrumentation: a. Compound liquid handling: LabCyte Echo; b. Reagent liquid handling: Thermo Scientific Multidrop Combi; c. BMG PHERAStar multilabel plate reader.
# Protein Reagent: His6-TEV-PDGFRβ Protein Prep prepared at Accelagen.
# Assay buffer stock solution, contains 50 mM Hepes, 10 mM MgCl2, 1 mM EGTA, and 0.01% Brij-35, 0.01% ovalbumin, 2 mM DTT at pH 7.5, in molecular biology grade water. Store at room temperature.
# Assay buffer. Dilute 5× Kinase buffer 5-fold with molecular biology grade water and add DTT to 2 mM and ovalbumin to 0.1 mg/mL (or 0.01%).
# 2× protein solution. Make a working solution of […] PDGFRβ in assay buffer. Keep on ice until use to maintain enzyme stability.
# 2× substrate solution. Make a working solution of 1.6 mM ATP and 1 μM TK-substrate biotin peptide in assay buffer. 3× quench/detection solution.
# Step 2. PDGFRβ E+I pre-incubation: Add 2 μL 2× protein solution to columns 1-24 using the Multidrop Combi. Centrifuge at 1000 rpm for 1 min. Incubate 30 min at RT
# Step 2. Enzymatic reaction: Add 2 μL substrate solution to columns 1-24 to initiate the reaction using the Multidrop Combi; cover/seal the assay plate to reduce evaporation. Centrifuge at 1000 rpm for 1 min. Incubate at room temperature for 3 hours.
# Final concentrations of components in PDGFRp cascade assay:
# 0.5 μM TK-substrate biotin peptide
# Step 3. Quench/Detection: Add 2 μl 3× quench/detection solution to columns 1-24 using the Multidrop Combi; cover/seal the plate. Centrifuge 1 min 1000 rpm. Incubate at RT for 60 min.
# HTRF ratio values calculated by the instrument (Ratio is acceptor counts/donor counts*10,000) is exported from the plate reader and used in data analysis. The exported data will be used to calculate 1) compound activity and 2) assay statistics. […] Assay statistics can include Robust Z′ and Signal to Background.
# % Inhibition Calculation: Percent inhibition will be calculated for sample wells based on the equation: […]
# IC50 Calculation: For IC50 determination, full 11-point dose response data will be processed using the following equation: […]
# VEGFR2, unphosphorylated = VEGFR2, unphosphorylated (Homo sapiens (Human), UniProt P35968); assay: VEGFR ADP GLO assay; type: biochemical; conditions: 5 nM VEGFR2, 1.2 mM ATP, 1 mg/mL Srctide, 180 min
# Procedure: Assay buffer stock contains 50 mM HEPES pH7.5, 10 mM MgCl2, 0.01% Brij-35, and 1 mM EGTA.
# Unphosphorylated VEGFR2. 52.6 μM in 50 mM Tris-HCl, pH 8.0, 50 mM NaCl, 5% Glycerol, 0.5 mM TCEP. Store at −80° C. in aliquots.
# 10 mg/mL srctide solution, prepared in Assay buffer (Assay buffer stock with 2 mM DTT, 0.1% Pluronic F-127, and 0.1 mg/mL ovalbumin). Sonicate 10 mg/ml Srctide solution for 10 minutes and then vacuum filter.
# Assay buffer. Add DTT to 2 mM, Pluronic F-127 to 0.1% and ovalbumin to 0.1 mg/mL to Assay buffer stock.
# 2× kinase solution. Make a working solution of 10 nM unphosphorylated VEGFR2 in Assay buffer. Vacuum filter 2× kinase solution prior to running assay. Keep on ice until use.
# 2× substrate/ATP solution. Make a working solution of 2 mg/mL srctide and 2.4 mM ATP in Assay buffer. Keep on ice until use.
# Step 1. Dispensing inhibitors/controls: Using Echo, dispense 10 nL/well compound serial dilutions in DMSO to columns 1-22 (in 384-well plates) or columns 1-44 (in 1536-well plates). Dilution series=11 pt, 3-fold dilutions. The top compound concentration in the source plate is 4 mM. The top compound concentration in the assay plate is 10 uM. Using Echo, dispense 10 nl/well DMSO to column 23 (in 384-well plates) or columns 45-47 (in 1536-well plates). These wells will serve as negative control wells Using Echo, dispense 10 nl/well 400 uM TAK-593 in DMSO to column 24 (in 384-well plates) or column 48 (in 1536-well plates). The final concentration of TAK-593 in the assay should be 1 uM. These wells will serve as positive control wells.
# Step 2. Pre-incubation of inhibitors with kinase: Add 2 μL/well 2× kinase solution. Centrifuge at 1000 rpm for 1 min. Incubate at room temperature for 30 min.
# Step 3. Kinase cascade reaction: Add 2 μL/well 2× substrate/ATP solution to initiate kinase reactions. Centrifuge at 1000 rpm for 1 min. Incubate at room temperature for 180 min.
# Final concentrations of components in the assay:
# Step 4. Quench: Add 2 uL/well ADP Glo Reagent+0.05% CHAPS. Centrifuge at 1000 rpm for 1 min; Incubate at room temperature for one hour.
# Step 5. Detection: Add 2 uL/well Kinase Detection Reagent+0.05% CHAPS. Centrifuge at 1000 rpm for 1 min; Incubate at room temperature for 1 hour; Read Luminescence on a plate reader.
# % Inhibition: % Inhibition=(NC−sample)/(NC−PC)*100 where NC is the mean of negative control (reactions without inhibitor), and PC is the mean of positive control (1 μM TAK-593).
# IC50 values are determined from a 4-parameter fit, using the following equation: Y=Bottom+(Top−Bottom)/(1+10^(Log IC50-X)*Hill Slope), where X=log10 of the compound concentration; top can be defined by PC; bottom defined by NC.
# PDGFRβ = PDGFRβ (Rattus norvegicus (Rat), UniProt Q05030); assay: PDGFRβ Cellular Assay (PDGFRb P-Y751 HTRF, PDGF-BB stimulated A10 cells); type: cell-based
# Method in brief: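 Rat A10 cells plated overnight were treated with compound for 3 h, stimulated with rat PDGF-BB (working stock 100 ng/mL in 10% FBS medium) for 10 min, then lysed.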
# [3] = 800 μM ATP, 0.5 μM TK-substrate biotin peptide, 30 min pre-incubation, 3 hours reaction, read-out: PDGFR HTRF IC50
# [4] = A10 cells, 3 hours compound, 15 ng/mL PDGFbb for 10 minutes, read-out: PDGFR Cellular IC50
# PDGFRβ, sequence (Q05030 whole entry, looked up): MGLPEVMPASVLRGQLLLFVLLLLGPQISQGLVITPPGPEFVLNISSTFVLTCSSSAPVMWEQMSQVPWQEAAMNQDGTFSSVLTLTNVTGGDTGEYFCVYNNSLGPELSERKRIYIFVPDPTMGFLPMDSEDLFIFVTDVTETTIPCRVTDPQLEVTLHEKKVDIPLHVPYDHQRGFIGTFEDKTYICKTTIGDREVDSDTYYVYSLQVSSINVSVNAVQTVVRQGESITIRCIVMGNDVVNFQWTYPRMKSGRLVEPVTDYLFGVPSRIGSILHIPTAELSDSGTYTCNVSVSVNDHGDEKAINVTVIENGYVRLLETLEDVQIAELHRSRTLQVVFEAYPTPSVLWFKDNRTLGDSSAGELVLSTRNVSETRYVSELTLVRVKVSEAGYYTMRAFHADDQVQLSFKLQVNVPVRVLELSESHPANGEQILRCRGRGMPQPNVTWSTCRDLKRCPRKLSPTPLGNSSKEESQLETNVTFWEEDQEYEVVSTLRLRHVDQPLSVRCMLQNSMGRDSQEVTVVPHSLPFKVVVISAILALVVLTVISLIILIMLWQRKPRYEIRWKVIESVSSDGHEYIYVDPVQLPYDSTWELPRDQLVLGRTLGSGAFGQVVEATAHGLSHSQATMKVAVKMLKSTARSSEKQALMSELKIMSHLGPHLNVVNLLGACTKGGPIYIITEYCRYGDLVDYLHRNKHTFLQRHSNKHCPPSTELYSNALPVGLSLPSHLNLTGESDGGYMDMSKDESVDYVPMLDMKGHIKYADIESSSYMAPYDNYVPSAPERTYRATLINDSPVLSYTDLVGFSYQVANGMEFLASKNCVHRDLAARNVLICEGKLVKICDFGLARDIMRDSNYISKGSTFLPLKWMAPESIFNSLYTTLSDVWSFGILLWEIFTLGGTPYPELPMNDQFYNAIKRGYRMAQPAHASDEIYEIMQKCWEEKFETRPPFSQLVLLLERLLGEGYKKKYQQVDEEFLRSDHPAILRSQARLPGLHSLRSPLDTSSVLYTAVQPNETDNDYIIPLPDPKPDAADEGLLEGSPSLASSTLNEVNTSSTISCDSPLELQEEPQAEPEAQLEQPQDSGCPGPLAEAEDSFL
# His6-TEV-PDGFRβ (557-1016), sequence (P09619 whole entry, looked up): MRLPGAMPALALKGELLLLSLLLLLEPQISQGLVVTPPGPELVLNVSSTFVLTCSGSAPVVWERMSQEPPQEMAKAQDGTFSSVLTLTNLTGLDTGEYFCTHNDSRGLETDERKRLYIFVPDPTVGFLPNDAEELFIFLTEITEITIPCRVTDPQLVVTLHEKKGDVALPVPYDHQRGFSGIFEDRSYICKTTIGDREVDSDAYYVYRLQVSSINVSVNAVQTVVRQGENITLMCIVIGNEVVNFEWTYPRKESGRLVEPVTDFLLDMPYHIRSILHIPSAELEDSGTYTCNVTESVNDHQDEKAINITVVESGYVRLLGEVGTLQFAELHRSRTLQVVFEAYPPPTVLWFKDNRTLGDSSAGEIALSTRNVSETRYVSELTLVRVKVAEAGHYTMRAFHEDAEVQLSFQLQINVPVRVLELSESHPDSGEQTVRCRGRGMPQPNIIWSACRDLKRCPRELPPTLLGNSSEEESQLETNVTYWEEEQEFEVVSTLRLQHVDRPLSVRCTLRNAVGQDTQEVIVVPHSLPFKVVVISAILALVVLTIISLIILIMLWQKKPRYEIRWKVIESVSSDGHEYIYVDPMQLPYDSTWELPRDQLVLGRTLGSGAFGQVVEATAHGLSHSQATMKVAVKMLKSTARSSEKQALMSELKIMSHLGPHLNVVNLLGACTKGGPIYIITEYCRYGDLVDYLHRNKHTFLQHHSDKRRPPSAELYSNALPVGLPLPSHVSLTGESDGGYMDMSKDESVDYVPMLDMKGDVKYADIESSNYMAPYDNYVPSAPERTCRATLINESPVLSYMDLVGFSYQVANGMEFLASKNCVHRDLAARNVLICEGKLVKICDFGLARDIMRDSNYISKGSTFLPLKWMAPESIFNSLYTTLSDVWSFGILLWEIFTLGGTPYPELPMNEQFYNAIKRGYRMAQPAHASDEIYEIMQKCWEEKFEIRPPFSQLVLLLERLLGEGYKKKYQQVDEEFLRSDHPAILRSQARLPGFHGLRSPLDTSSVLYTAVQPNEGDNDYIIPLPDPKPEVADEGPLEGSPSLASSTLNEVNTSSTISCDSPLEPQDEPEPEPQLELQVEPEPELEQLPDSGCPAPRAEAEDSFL
# Tb-labeled inactive PDGFRβ, sequence (P09619 whole entry, looked up): as above
# VEGFR2, unphosphorylated, sequence (P35968 whole entry, looked up): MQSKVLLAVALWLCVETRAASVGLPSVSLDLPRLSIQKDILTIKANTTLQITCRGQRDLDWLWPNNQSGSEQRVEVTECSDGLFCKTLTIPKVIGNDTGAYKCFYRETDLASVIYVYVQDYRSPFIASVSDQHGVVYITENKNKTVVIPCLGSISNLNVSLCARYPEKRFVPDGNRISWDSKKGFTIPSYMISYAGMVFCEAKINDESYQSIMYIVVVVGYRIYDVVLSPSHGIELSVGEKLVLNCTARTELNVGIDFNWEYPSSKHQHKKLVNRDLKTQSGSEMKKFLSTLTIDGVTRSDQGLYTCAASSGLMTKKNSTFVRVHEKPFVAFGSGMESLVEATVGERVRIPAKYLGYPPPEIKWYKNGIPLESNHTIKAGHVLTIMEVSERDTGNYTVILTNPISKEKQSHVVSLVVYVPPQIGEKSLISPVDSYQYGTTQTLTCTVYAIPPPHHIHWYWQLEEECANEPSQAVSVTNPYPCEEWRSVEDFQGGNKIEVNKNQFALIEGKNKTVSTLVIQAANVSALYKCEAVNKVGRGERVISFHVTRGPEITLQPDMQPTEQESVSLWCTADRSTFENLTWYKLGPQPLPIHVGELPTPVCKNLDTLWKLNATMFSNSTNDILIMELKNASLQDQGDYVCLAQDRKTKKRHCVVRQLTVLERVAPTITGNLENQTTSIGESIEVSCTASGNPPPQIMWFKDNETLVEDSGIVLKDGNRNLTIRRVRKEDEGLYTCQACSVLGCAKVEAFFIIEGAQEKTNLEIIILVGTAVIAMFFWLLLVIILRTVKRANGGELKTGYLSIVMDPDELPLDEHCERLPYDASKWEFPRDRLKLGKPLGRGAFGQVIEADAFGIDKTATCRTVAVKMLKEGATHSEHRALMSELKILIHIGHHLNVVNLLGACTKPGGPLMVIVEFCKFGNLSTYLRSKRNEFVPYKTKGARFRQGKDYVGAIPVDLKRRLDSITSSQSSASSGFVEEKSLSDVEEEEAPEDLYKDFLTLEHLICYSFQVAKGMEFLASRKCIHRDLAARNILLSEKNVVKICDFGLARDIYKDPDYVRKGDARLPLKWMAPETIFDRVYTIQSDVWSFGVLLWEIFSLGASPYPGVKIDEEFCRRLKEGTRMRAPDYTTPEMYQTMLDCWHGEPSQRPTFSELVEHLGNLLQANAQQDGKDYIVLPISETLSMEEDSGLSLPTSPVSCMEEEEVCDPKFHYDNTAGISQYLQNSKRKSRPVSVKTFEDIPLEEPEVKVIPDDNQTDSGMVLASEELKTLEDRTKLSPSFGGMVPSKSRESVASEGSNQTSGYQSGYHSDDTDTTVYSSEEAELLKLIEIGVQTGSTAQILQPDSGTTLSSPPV
compound,measurement,setting,value
"Cc1ncc(NC(=O)C2(C(=O)N3CCN(C)CC3)CC2)cc1Nc1nn(C)c2nc(Nc3cnn(C)c3)ncc12 [Example 116, N-(6-methyl-5-((1-methyl-6-((1-methyl-1H-pyrazol-4-yl)amino)-1H-pyrazolo[3,4-d]pyrimidin-3-yl)amino)pyridin-3-yl)-1-(4-methylpiperazine-1-carbonyl)cyclopropanecarboxamide]",IC50,[1]; read-out: PDGFR Lantha IC50,59.4 nM
same,IC50,[2]; [3],2.63 nM
same,IC50,"VEGFR2, unphosphorylated",> 7500 nM
same,IC50,PDGFRβ; [4],721 nM
"COC1CN(CC(=O)Nc2cnc(C)c(Nc3nn(C)c4nc(Nc5cnn(C)c5)ncc34)c2)C1 [Example 137, 2-(3-methoxyazetidin-1-yl)-N-(6-methyl-5-((1-methyl-6-((1-methyl-1H-pyrazol-4-yl)amino)-1H-pyrazolo[3,4-d]pyrimidin-3-yl)amino)pyridin-3-yl)acetamide]",IC50,[1]; read-out: PDGFR Lantha IC50,4.5 nM
same,IC50,[2]; [3],0.49 nM
same,IC50,"VEGFR2, unphosphorylated",> 7500 nM
same,IC50,PDGFRβ; [4],20.9 nM
"COCCn1cc(Nc2ncc3c(Nc4cc(NC(=O)CN5CC(C)(C)C5)cnc4C)nn(C)c3n2)cn1 [Example 126, 2-(3,3-dimethylazetidin-1-yl)-N-(5-((6-((1-(2-methoxyethyl)-1H-pyrazol-4-yl)amino)-1-methyl-1H-pyrazolo[3,4-d]pyrimidin-3-yl)amino)-6-methylpyridin-3-yl)acetamide]",IC50,[1]; read-out: PDGFR Lantha IC50,2.1 nM
same,IC50,[2]; [3],0.33 nM
same,IC50,"VEGFR2, unphosphorylated",6880 nM
same,IC50,PDGFRβ; [4],6 nM
"COC1CCN(CCNC(=O)c2cc(C)c(Nc3nn(C)c4nc(Nc5cnn(C)c5)ncc34)s2)CC1 [Example 49, N-(2-(4-methoxypiperidin-1-yl)ethyl)-4-methyl-5-((1-methyl-6-((1-methyl-1H-pyrazol-4-yl)amino)-1H-pyrazolo[3,4-d]pyrimidin-3-yl)amino)thiophene-2-carboxamide]",IC50,[1]; read-out: PDGFR Lantha IC50,40.2 nM
same,IC50,[2]; [3],1.17 nM
same,IC50,"VEGFR2, unphosphorylated",> 7500 nM
same,IC50,PDGFRβ; [4],105 nM
"Cc1ccc(C(=O)NCCN2CCC(F)(F)CC2)cc1Nc1nn(C)c2nc(Nc3cnn(C)c3)ncc12 [Example 118, N-(2-(4,4-difluoropiperidin-1-yl)ethyl)-4-methyl-3-((1-methyl-6-((1-methyl-1H-pyrazol-4-yl)amino)-1H-pyrazolo[3,4-d]pyrimidin-3-yl)amino)benzamide]",IC50,[1]; read-out: PDGFR Lantha IC50,1.8 nM
same,IC50,[2]; [3],0.29 nM
same,IC50,"VEGFR2, unphosphorylated",76 nM
same,IC50,PDGFRβ; [4],5.4 nM
"COc1ncccc1Nc1ncc2c(Nc3cc(NC(=O)CN4CCC[C@@H]4C)cnc3C)nn(C)c2n1 [Example 146, (S)—N-(5-((6-((2-methoxypyridin-3-yl)amino)-1-methyl-1H-pyrazolo[3,4-d]pyrimidin-3-yl)amino)-6-methylpyridin-3-yl)-2-(2-methylpyrrolidin-1-yl)acetamide]",IC50,[1]; read-out: PDGFR Lantha IC50,19.7 nM
same,IC50,[2]; [3],2.33 nM
same,IC50,"VEGFR2, unphosphorylated",> 7500 nM
same,IC50,PDGFRβ; [4],14.1 nM
"Cc1ncc(NC(=O)CN(CCF)C2CCCC2)cc1Nc1nn(C)c2nc(Nc3cnn(C)c3)ncc12 [Example 133, 2-(cyclopentyl(2-fluoroethyl)amino)-N-(6-methyl-5-((1-methyl-6-((1-methyl-1H-pyrazol-4-yl)amino)-1H-pyrazolo[3,4-d]pyrimidin-3-yl)amino)pyridin-3-yl)acetamide]",IC50,[1]; read-out: PDGFR Lantha IC50,2.4 nM
same,IC50,[2]; [3],0.44 nM
same,IC50,"VEGFR2, unphosphorylated",5550 nM
same,IC50,PDGFRβ; [4],4.1 nM
"Cc1ncc(NC(=O)CN2CCC[C@@H]2C)cc1Nc1nn(C)c2nc(Nc3cnn(C4COC4)c3)ncc12 [Example 144, (S)—N-(6-methyl-5-((1-methyl-6-((1-(oxetan-3-yl)-1H-pyrazol-4-yl)amino)-1H-pyrazolo[3,4-d]pyrimidin-3-yl)amino)pyridin-3-yl)-2-(2-methylpyrrolidin-1-yl)acetamide]",IC50,[1]; read-out: PDGFR Lantha IC50,2.8 nM
same,IC50,[2]; [3],0.35 nM
same,IC50,"VEGFR2, unphosphorylated",> 7500 nM
same,IC50,PDGFRβ; [4],5.1 nM
"Cc1cc(C(=O)NCCN2CCCC2(C)C)sc1Nc1nn(C)c2nc(Nc3cncnc3)ncc12 [Example 48, N-(2-(2,2-dimethylpyrrolidin-1-yl)ethyl)-4-methyl-5-((1-methyl-6-(pyrimidin-5-ylamino)-1H-pyrazolo[3,4-d]pyrimidin-3-yl)amino)thiophene-2-carboxamide]",IC50,[1]; read-out: PDGFR Lantha IC50,52.8 nM
same,IC50,[2]; [3],1.07 nM
same,IC50,"VEGFR2, unphosphorylated",> 7500 nM
same,IC50,PDGFRβ; [4],110 nM
"Cc1nn(C)cc1Nc1ncc2c(Nc3cc(C(=O)NCCN4CCC5(CC5)C4)cnc3C)nn(C)c2n1 [Example 154, N-(2-(5-azaspiro[2.4]heptan-5-yl)ethyl)-5-((6-((1,3-dimethyl-1H-pyrazol-4-yl)amino)-1-methyl-1H-pyrazolo[3,4-d]pyrimidin-3-yl)amino)-6-methylnicotinamide]",IC50,[1]; read-out: PDGFR Lantha IC50,12 nM
same,IC50,[2]; [3],1.41 nM
same,IC50,"VEGFR2, unphosphorylated",> 7500 nM
same,IC50,PDGFRβ; [4],120 nM
"Cc1ncc(C(=O)NCCN2CCCC(F)(F)C2)cc1Nc1nn(C)c2nc(Nc3cncnc3)ncc12 [Example 2, N-(2-(3,3-difluoropiperidin-1-yl)ethyl)-6-methyl-5-((1-methyl-6-(pyrimidin-5-ylamino)-1H-pyrazolo[3,4-d]pyrimidin-3-yl)amino)nicotinamide]",IC50,[1]; read-out: PDGFR Lantha IC50,3.7 nM
same,IC50,[2]; [3],0.57 nM
same,IC50,"VEGFR2, unphosphorylated",> 7500 nM
same,IC50,PDGFRβ; [4],27.1 nM
"Cc1ncc(C(=O)NCCN2CCCC[C@H]2C)cc1Nc1nn(C)c2nc(Nc3cnn(C)c3)ncc12 [Example 82, (R)-6-methyl-5-((1-methyl-6-((1-methyl-1H-pyrazol-4-yl)amino)-1H-pyrazolo[3,4-d]pyrimidin-3-yl)amino)-N-(2-(2-methylpiperidin-1-yl)ethyl)nicotinamide]",IC50,[1],1.7 nM
same,IC50,[2],0.18 nM
same,IC50,"VEGFR2, unphosphorylated",> 7500 nM
same,IC50,PDGFRβ,20.2 nM
"Cc1ccc(C(=O)NCCN2CCC[C@@H]2C)cc1Nc1nn(C)c2nc(Nc3cnn(C)c3)ncc12 [Example 65, (S)-4-methyl-3-((1-methyl-6-((1-methyl-1H-pyrazol-4-yl)amino)-1H-pyrazolo[3,4-d]pyrimidin-3-yl)amino)-N-(2-(2-methylpyrrolidin-1-yl)ethyl)benzamide]",IC50,[1]; read-out: PDGFR Lantha IC50,2.1 nM
same,IC50,[2]; [3],0.22 nM
same,IC50,"VEGFR2, unphosphorylated",2400 nM
same,IC50,PDGFRβ; [4],10 nM
